The values that follow come from publication PMC10185643, “Improved LC–MS identification of short homologous peptides using sequence-specific retention time predictors” (Analytical and Bioanalytical Chemistry, 2023).

The series can be described thus: Reversed-phase LC-MS experimental retention time of short peptides. In kind it is physicochemical. The conditions noted are these: for RT: experimental retention time, reversed-phase LC-MS, Table S1, column Source gives the peptide's origin (1-4 = synthesis route of homologous peptides, enzyme).

Method: All analyses were performed on an UltiMate 3000 RS chromatography system equipped with a UV detector, connected to a Q-Exactive Plus Hybrid Quadrupole-Orbitrap mass spectrometer (Thermo Fischer Scientific, Waltham, MA, USA). An Xselect Peptide CSH C18 130 Å column (particle size 2.5 µm, dimensions 150 × 2.1 mm, Waters, Etten-Leur, the Netherlands) with associated VanGuard pre-column was used for the separations. The analytes were eluted at a flow rate of 0.35 ml/min using a linear gradient of water (solvent A) and acetonitrile (solvent B) both fortified with 0.1% formic acid. […] The column temperature was maintained at 40 °C and the auto-sampler at 4 °C. The injection volume was 5 µL.
The sheath gas was set to 48 arbitrary units, the auxiliary gas was set to 11 arbitrary units, and the spray voltage was set to 3.7 kV. The mass spectrometer was set to operate in full-scan MS data-dependent MS^2 (ddMS^2) mode. Full-scan spectra were acquired at a resolution of 70.000 in the m/z range 80–1200 using a maximum ion injection time of 100 ms, unless stated otherwise. […] The maximum injection time was set to 150 ms, and a normalized stepped collision energy was applied of 15, 30 and 45 arbitrary units.

On to CLVR, for which the RT was 4,57.
As for CPFD, the “RT (retention time)” value (Table S1, Source: enzyme, experimental reversed-phase LC-MS retention time, decimal comma) was 13,62.
Take KCEVF: the RT is on record as 4,52.
